For test [1], the target named is NACHT, LRR and PYD domains-containing protein 3 (Mus musculus) (UniProt Q8R4B8). Nature of the test: Inhibition of NLRP3 inflammasome priming in ICR mouse BMDM assessed as inhibition of pro-caspase-1 expression in cell supernatant at 0.2 to 5 uM pretreated with compound for 1 hr followed by stimulation with LPS for 3 hrs and later incubated with ATP for 30 mins by western blot analysis. In kind it is cell-based. The settings on record: dose 0.2-5 µM, time 4.5 hrs.

Test [2] has the same target. Nature of the test: Inhibition of NLRP3 inflammasome activation in ICR mouse BMDM assessed as inhibition of LPS/MSU-stimulated IL-1 beta secretion in cell supernatant at 1 uM treated for 3 hrs with LPS followed by incubation with compound for 1 hr and later stimulated with MSU for 4 hrs by ELISA. Particulars: time 5.0 hrs. In kind it is cell-based.
Test [3] concerns Mus musculus. Nature of the test: Anti-inflammatory activity against LPS-stimulated acute lung injury C57BL/6 mouse model assessed as active animal at 10 mg/kg, ip treated for 3 days and on third day administered with LPS at 30 mins post-compound challenge. In kind it is functional, organism-based. Particulars: time 3.0 day.
In test [4] the target is T1, Interferon-inducible protein AIM2 (Mus musculus) (UniProt Q91VJ1).
T1 sequence (whole entry): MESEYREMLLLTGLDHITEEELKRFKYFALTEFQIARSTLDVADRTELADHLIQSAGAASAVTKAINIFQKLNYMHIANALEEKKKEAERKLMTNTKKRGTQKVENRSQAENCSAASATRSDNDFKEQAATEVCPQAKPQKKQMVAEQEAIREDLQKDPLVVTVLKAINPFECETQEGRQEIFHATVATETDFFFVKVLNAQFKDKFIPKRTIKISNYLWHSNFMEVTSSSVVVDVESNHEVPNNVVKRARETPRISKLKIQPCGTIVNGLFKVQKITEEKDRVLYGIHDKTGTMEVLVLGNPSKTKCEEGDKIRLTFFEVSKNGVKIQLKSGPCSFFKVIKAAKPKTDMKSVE
Nature of the test: Inhibition of AIM2 inflammasome activation in ICR mouse BMDM assessed as inhibition of poly(dA:dT)-stimulated IL-1 beta expression in cell supernatant at 1 uM treated for 3 hrs with LPS followed by incubation with compound for 1 hr and later cells transfected with poly(dA:dT) for 4 hrs by western blot analysis. Particulars: time 5.0 hrs. In kind it is cell-based.

The target of test [5] is NACHT, LRR and PYD domains-containing protein 3 (Mus musculus) (UniProt Q8R4B8). Nature of the test: Inhibition of NLRP3 inflammasome activation in ICR mouse BMDM assessed as inhibition of LPS/MSU-stimulated IL-1 beta expression in cell supernatant at 1 uM treated for 3 hrs with LPS followed by incubation with compound for 1 hr and later stimulated with MSU for 4 hrs by western blot analysis. In kind it is cell-based. The settings on record: time 5.0 hrs.

The target is the same in test [6]. Nature of the test: Inhibition of NLRP3 inflammasome activation in ICR mouse BMDM assessed as inhibition of LPS/ATP-stimulated caspase-1 expression in cell supernatant at 1 uM treated for 3 hrs with LPS followed by incubation with compound for 1 hr and later stimulated with ATP for 0.5 hrs by western blot analysis. Particulars: time 1.5 hrs. The test is classed as cell-based.

Test [7] deals with Mus musculus. Nature of the test: Anti-inflammatory activity against LPS-stimulated acute lung injury C57BL/6 mouse model assessed as decrease in IL-6 level in serum at 0.1 to 1 mg/kg, ip treated for 3 days and on third day administered with LPS at 30 mins post-compound challenge and measured after 12 hrs by ELISA. Particulars: dose 0.1-1 mg/kg, time 3.5 day. The test is classed as functional, organism-based.

Test [8] deals with Mus musculus. Nature of the test: Anti-inflammatory activity against LPS-stimulated acute lung injury C57BL/6 mouse model assessed as decrease in IL-1 beta mRNA expression in right lung at 0.1 to 1 mg/kg, ip treated for 3 days and on third day administered with LPS at 30 mins post-compound challenge and measured after 12 hrs by RT-qPCR analysis. The settings on record: dose 0.1-1 mg/kg, time 3.5 day. In kind it is functional, organism-based.

For test [9], the system named is Mus musculus. Nature of the test: Anti-inflammatory activity against LPS-stimulated acute lung injury C57BL/6 mouse model assessed as decrease in IL-6 level in BALF at 0.1 to 1 mg/kg, ip treated for 3 days and on third day administered with LPS at 30 mins post-compound challenge and measured after 12 hrs by ELISA. In kind it is functional, organism-based. The settings on record: dose 0.1-1 mg/kg, time 3.5 day.

Test [10] deals with NACHT, LRR and PYD domains-containing protein 3 (Mus musculus) (UniProt Q8R4B8). Nature of the test: Inhibition of NLRP3 inflammasome priming in ICR mouse BMDM assessed as inhibition of TNF-alpha secretion in cell supernatant at 0.2 to 5 uM pretreated with compound for 1 hr followed by stimulation with LPS for 3 hrs and later incubated with ATP for 30 mins by ELISA. The test is classed as cell-based. The settings on record: dose 0.2-5 µM, time 4.5 hrs.

Test [11] deals with Mus musculus. Kind of test: Anti-inflammatory activity against LPS-stimulated acute lung injury C57BL/6 mouse model assessed as decrease in IL-1 beta level in serum at 0.1 to 1 mg/kg, ip treated for 3 days and on third day administered with LPS at 30 mins post-compound challenge and measured after 12 hrs by ELISA. In kind it is functional, organism-based. Particulars: dose 0.1-1 mg/kg, time 3.5 day.

For test [12], the target named is NACHT, LRR and PYD domains-containing protein 3 (Mus musculus) (UniProt Q8R4B8). Nature of the test: Inhibition of NLRP3 inflammasome priming in ICR mouse BMDM assessed as inhibition of pro-caspase-1 protein expression in cell lysate at 1 uM treated for 3 hrs with LPS followed by incubation with compound for 1 hr and later stimulated with MSU for 4 hrs by western blot analysis. In kind it is subcellular. Particulars: time 5.0 hrs.

Test [13] concerns Mus musculus. Kind of test: Anti-inflammatory activity against LPS-stimulated acute lung injury C57BL/6 mouse model assessed as decrease in weight loss at 0.1 to 1 mg/kg, ip treated for 3 days and on third day administered with LPS at 30 mins post-compound challenge. The settings on record: dose 0.1-1 mg/kg, time 3.0 day. In kind it is functional, organism-based.
Test [14] has as its target NACHT, LRR and PYD domains-containing protein 3 (Mus musculus) (UniProt Q8R4B8). Kind of test: Inhibition of NLRP3 inflammasome priming in ICR mouse BMDM assessed as inhibition of ASC expression in cell supernatant at 0.2 to 5 uM pretreated with compound for 1 hr followed by stimulation with LPS for 3 hrs and later incubated with ATP for 30 mins by western blot analysis. Particulars: dose 0.2-5 µM, time 4.5 hrs. The test is classed as cell-based.

Test [15] addresses NLR family CARD domain-containing protein 4 (Mus musculus) (UniProt Q3UP24). Kind of test: Inhibition of NLRC4 inflammasome activation in ICR mouse BMDM assessed as inhibition of FLA-ST-stimulated IL-1 beta secretion in cell supernatant at 1 uM treated for 3 hrs with LPS followed by incubation with compound for 1 hr and later stimulated with FLA-ST for 2 hrs by ELISA. In kind it is cell-based.

Test [16] has as its target T1, Interferon-inducible protein AIM2 (Mus musculus). Kind of test: Inhibition of AIM2 inflammasome activation in ICR mouse BMDM assessed as inhibition of poly(dA:dT)-stimulated caspase-1 expression in cell supernatant at 1 uM treated for 3 hrs with LPS followed by incubation with compound for 1 hr and later cells transfected with poly(dA:dT) for 4 hrs by western blot analysis. Particulars: time 5.0 hrs. In kind it is cell-based.

Test [17] addresses NACHT, LRR and PYD domains-containing protein 3 (Mus musculus) (UniProt Q8R4B8). Nature of the test: Inhibition of NLRP3 inflammasome priming in ICR mouse BMDM assessed as inhibition of NLRP3 expression in cell supernatant at 0.2 to 5 uM pretreated with compound for 1 hr followed by stimulation with LPS for 3 hrs and later incubated with ATP for 30 mins by western blot analysis. Particulars: dose 0.2-5 µM, time 4.5 hrs. The test is classed as cell-based.

Test [18] deals with NACHT, LRR and PYD domains-containing protein 3 (Homo sapiens, UniProt Q96P20). Nature of the test: Binding affinity to NLRP3 (unknown origin) by SPR assay.
Test [19] deals with NACHT, LRR and PYD domains-containing protein 3 (Mus musculus) (UniProt Q8R4B8). Kind of test: Inhibition of NLRP3 inflammasome priming in ICR mouse BMDM assessed as inhibition of pro-caspase-1 expression in cell lysate at 1 uM treated for 3 hrs with LPS followed by incubation with compound for 1 hr and later stimulated with nigericin for 0.5 hrs by western blot analysis. The test is classed as subcellular. Particulars: time 1.5 hrs.

Test [20] has the same target. Nature of the test: Inhibition of NLRP3 inflammasome priming in ICR mouse BMDM assessed as inhibition of pro-IL-1 beta protein expression in cell lysate at 0.2 to 5 uM treated for 3 hrs with LPS followed by incubation with compound for 1 hr and later stimulated with ATP for 0.5 hrs by western blot analysis. The settings on record: dose 0.2-5 µM, time 1.5 hrs. The test is classed as subcellular.

From ChEMBL document CHEMBL6071152, “Design, synthesis, and biological evaluation of oridonin derivatives as novel NLRP3 inflammasome inhibitors for the treatment of acute lung injury” (Eur J Med Chem, 2024) come the findings set out here.

The source made the active and inactive calls. The calls are words filed in the database; no cut-off is given here.

Chain of NACHT, LRR and PYD domains-containing protein 3 (Mus musculus) (Q8R4B8 whole entry, the tested form may be a part): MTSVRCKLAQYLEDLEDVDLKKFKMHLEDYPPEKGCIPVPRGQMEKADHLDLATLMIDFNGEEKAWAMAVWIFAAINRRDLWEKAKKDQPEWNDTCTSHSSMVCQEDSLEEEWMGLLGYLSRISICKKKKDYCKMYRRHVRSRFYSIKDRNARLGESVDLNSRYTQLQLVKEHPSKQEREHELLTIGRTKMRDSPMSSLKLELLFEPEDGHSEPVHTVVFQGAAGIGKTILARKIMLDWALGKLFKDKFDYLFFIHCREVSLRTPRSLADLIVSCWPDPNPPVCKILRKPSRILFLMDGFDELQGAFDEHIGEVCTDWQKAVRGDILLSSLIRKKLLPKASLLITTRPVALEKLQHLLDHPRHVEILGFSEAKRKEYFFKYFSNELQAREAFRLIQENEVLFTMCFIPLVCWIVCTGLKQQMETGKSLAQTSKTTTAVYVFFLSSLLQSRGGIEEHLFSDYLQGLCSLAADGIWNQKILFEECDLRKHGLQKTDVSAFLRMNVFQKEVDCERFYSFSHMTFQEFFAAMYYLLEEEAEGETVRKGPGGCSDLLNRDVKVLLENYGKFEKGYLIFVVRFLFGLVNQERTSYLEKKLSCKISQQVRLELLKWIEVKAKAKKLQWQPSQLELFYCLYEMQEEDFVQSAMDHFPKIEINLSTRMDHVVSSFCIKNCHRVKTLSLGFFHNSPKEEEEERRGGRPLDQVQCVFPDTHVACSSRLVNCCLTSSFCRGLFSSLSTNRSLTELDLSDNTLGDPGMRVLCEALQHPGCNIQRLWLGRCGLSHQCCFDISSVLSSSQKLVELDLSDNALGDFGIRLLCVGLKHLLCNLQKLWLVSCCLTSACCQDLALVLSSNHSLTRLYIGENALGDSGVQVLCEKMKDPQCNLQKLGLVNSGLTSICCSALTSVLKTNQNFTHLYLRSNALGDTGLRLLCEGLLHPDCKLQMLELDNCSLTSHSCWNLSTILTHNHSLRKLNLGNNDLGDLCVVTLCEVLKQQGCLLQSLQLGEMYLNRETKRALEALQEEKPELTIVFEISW
Chain of NLR family CARD domain-containing protein 4 (Mus musculus) (Q3UP24 whole entry, the tested form may be a part): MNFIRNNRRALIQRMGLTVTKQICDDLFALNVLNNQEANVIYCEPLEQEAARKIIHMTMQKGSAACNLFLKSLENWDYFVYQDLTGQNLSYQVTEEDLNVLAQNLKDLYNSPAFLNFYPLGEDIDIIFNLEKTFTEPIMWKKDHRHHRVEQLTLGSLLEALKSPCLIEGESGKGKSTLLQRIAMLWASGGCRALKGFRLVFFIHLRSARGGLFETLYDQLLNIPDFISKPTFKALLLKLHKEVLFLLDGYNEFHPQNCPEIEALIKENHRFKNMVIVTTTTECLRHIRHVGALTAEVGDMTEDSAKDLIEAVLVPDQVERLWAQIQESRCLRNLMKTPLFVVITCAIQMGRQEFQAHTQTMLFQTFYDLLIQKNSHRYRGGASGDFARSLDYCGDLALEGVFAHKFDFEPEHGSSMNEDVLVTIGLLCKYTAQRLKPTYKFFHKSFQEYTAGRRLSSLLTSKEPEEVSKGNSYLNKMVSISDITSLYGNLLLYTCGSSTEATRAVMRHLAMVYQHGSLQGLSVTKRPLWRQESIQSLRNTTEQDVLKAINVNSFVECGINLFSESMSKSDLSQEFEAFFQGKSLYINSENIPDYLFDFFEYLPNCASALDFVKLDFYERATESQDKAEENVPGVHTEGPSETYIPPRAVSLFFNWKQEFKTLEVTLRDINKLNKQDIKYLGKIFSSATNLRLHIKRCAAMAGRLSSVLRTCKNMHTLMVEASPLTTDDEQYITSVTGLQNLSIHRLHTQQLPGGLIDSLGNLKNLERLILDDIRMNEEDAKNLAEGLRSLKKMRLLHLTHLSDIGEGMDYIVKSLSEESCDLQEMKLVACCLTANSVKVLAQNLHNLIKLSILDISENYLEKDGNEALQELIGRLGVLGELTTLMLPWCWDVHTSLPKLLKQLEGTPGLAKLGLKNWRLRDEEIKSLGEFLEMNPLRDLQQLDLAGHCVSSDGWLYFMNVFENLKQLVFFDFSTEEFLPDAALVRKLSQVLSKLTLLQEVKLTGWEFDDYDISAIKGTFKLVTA
Chain of NACHT, LRR and PYD domains-containing protein 3 (Q96P20 whole entry, the tested form may be a part): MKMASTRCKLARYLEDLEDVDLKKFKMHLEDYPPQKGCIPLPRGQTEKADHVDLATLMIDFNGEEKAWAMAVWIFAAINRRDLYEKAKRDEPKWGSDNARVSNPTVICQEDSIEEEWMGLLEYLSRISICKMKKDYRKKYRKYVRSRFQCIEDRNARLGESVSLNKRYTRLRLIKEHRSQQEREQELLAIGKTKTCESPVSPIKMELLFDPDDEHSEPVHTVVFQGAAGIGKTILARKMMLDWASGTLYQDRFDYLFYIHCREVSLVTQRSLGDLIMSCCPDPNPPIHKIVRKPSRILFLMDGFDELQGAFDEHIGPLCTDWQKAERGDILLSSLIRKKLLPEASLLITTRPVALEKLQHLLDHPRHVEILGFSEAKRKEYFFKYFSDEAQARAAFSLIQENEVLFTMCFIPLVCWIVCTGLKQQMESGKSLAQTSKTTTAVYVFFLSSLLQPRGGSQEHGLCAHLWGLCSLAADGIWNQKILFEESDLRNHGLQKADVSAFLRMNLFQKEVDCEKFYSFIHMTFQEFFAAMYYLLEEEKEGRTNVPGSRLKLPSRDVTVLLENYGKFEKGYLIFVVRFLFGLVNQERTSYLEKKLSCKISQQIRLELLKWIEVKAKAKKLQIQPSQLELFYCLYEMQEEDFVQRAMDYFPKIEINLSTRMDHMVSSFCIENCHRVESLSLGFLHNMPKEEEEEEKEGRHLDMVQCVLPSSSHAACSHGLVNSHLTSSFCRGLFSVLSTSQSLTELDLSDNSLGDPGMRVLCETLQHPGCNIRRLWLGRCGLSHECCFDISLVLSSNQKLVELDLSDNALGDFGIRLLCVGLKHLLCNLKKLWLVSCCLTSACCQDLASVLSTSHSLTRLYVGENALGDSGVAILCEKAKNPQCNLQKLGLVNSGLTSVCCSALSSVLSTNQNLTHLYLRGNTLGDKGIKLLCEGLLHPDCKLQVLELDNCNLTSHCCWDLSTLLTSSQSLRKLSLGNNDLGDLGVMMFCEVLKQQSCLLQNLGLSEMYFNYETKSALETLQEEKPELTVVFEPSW

For `C=C1C(=O)[C@]23[C@H](OC(=O)Nc4ccc(F)cc4)[C@H]1CC[C@H]2[C@]12C=CCC(C)(C)[C@H]1[C@H](O)[C@@]3(O)OC2`, the inhibition result in test [1], in test [4], in [10], in [12], in test [14] and in test [15] was “inactive” each time. The inhibition entry in [16], in test [17], in test [19] and in test [20] was “inactive” in each case. Further, the inhibition result in [2], in test [5] and in test [6] was “Active” each time. Also, the result in the test on Mus musculus [3] and with Mus musculus [13] was Active. The Activity entry in the test with Mus musculus [7], in the test with Mus musculus [8], in the test on Mus musculus [9] and with Mus musculus [11] was “Dose-Dependent Effect” in each case. In addition, the Kd in test [18] turned out to be 5.17 µM.
